Measured values as given in BindingDB's records for patent US12503484 (Seismic Pharmaceuticals, 2025).

Biological target: Sodium/potassium-transporting ATPase subunit alpha-1 (Canis lupus familiaris, UniProt P50997)
Assay: Inhibition of Dog Renal Na+/K+ ATPase Activity
Description: Increasing concentrations of the standard ouabain, or tested compound, were incubated with 0.3 μg of purified dog kidney enzyme for 10 min at 37° C. in 120 μl final volume of a medium containing 140 mM NaCl, 3 mM MgCl2, 50 mM Hepes-Tris, 3 mM ATP, pH 7.5. Then, 10 μl of a solution containing 10 mM KCl and 20 nCi of 32P-ATP (3-10 Ci/mmol, Perkin Elmer) were added. The reaction was allowed to continue for 15 min at 37° C. and then stopped by acidification with 20% v/v ice-cold perchloric acid. 32P was separated by centrifugation with activated Charcoal (Norit A, Serva) and the radioactivity was counted. The inhibitory activity was expressed as percent of the control samples carried out in the absence of ouabain, or tested compound.

`CCCC(=O)OCCC1CC[C@@]2(C)C(C1)[C@@H](O)C[C@@H]1[C@@H]2CC[C@]2(C)C(=O)CC[C@@H]12` (some centres not stated) [US12503484, Compound CVie217] showed an IC50 of over 100 µM.
`CCCCC(C(=O)O)C1CC[C@@]2(C)C(C1)[C@H](O)C[C@@H]1[C@@H]2CC[C@]2(C)C(=O)CC[C@@H]12` (some centres not stated) [US12503484, Compound CVie219] was tested, and the IC50 was over 100 µM.
